Measurements: the supplement of paper PMC10307832

Key:
Experiment in all cases: relative viability (nuclei count vs DMSO), 5 days (fraction); higher = more cells survive
[1] = test system: COR-L23
How it was run: (§1)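 Dosing by pin tool came one day after lung cancer cell lines were seeded in 1536-well plates, using either one drug or a fixed anchor-drug dose plus five library-drug doses (not always all listed) in √10 steps. After 5 days, nuclei were counted on 4× images. Relative viability is treated-well nuclei count divided by vehicle-well nuclei count, and values are medians of duplicate plates.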

[2] = test system: ChaGo-K-1
How it was run: as §1

[3] = test system: PC-14
How it was run: as §1

[4] = test system: HOP-62
How it was run: as §1

[5] = test system: H3255
How it was run: as §1

[6] = test system: HARA
How it was run: as §1

[7] = test system: NCI-H1437
How it was run: as §1

[8] = test system: NCI-H441
How it was run: as §1

[9] = test system: NCI-H2085
How it was run: as §1

[10] = test system: NCI-H1666
How it was run: as §1

[11] = test system: NCI-H661
How it was run: as §1

[12] = test system: LXF-289
How it was run: as §1

[13] = test system: LCLC-97TM1
How it was run: as §1

[14] = test system: NCI-H1944
How it was run: as §1

[15] = test system: NCI-H2126
How it was run: as §1

[16] = test system: NCI-H2087
How it was run: as §1

[17] = test system: NCI-H3122
How it was run: as §1

[18] = test system: EPLC-272H
How it was run: as §1

[19] = test system: NCI-H1650
How it was run: as §1

[20] = test system: NCI-H1793
How it was run: as §1

[21] = test system: HCC-78
How it was run: as §1

[22] = test system: NCI-H1395
How it was run: as §1

[23] = test system: NCI-H596
How it was run: as §1

## CN1CCN(CCOc2cc(OC3CCOCC3)c3c(Nc4c(Cl)ccc5c4OCO5)ncnc3c2)CC1 [Saracatinib] + COc1cccc2cc(-c3nc([C@H]4CC[C@H](C(=O)O)CC4)n4ncnc(N)c34)[nH]c12 [OSI-027] (partner 0.5 µM)
[1]; first compound 0.02 µM
  relative viability: 0.698
[1]; first compound 0.2 µM
  relative viability: 0.684
[1]; first compound 0.6325 µM
  relative viability: 0.746
[1]; first compound 2 µM
  relative viability: 0.641
[2]; first compound 0.02 µM
  relative viability: 0.707
[2]; first compound 0.2 µM
  relative viability: 0.533
[2]; first compound 0.6325 µM
  relative viability: 0.519
[2]; first compound 2 µM
  relative viability: 0.524
[3]; first compound 0.02 µM
  relative viability: 0.81
[3]; first compound 0.2 µM
  relative viability: 0.406
[3]; first compound 0.6325 µM
  relative viability: 0.151
[3]; first compound 2 µM
  relative viability: 0.0888
[4]; first compound 0.02 µM
  relative viability: 0.836
[4]; first compound 0.2 µM
  relative viability: 0.796
[4]; first compound 0.6325 µM
  relative viability: 0.794
[4]; first compound 2 µM
  relative viability: 0.773
[5]; first compound 0.02 µM
  relative viability: 0.587
[5]; first compound 0.2 µM
  relative viability: 0.589
[5]; first compound 0.6325 µM
  relative viability: 0.542
[5]; first compound 2 µM
  relative viability: 0.284
[6]; first compound 0.02 µM
  relative viability: 0.544
[6]; first compound 0.2 µM
  relative viability: 0.263
[6]; first compound 0.6325 µM
  relative viability: 0.483
[6]; first compound 2 µM
  relative viability: 0.205
[7]; first compound 0.02 µM
  relative viability: 0.913
[7]; first compound 0.2 µM
  relative viability: 0.671
[7]; first compound 0.6325 µM
  relative viability: 0.96
[7]; first compound 2 µM
  relative viability: 0.812
[8]; first compound 0.02 µM
  relative viability: 0.614
[8]; first compound 0.2 µM
  relative viability: 0.532
[8]; first compound 0.6325 µM
  relative viability: 0.875
[8]; first compound 2 µM
  relative viability: 0.623
[9]; first compound 0.02 µM
  relative viability: 0.839
[9]; first compound 0.2 µM
  relative viability: 0.723
[9]; first compound 0.6325 µM
  relative viability: 0.772
[9]; first compound 2 µM
  relative viability: 0.78
[10]; first compound 0.02 µM
  relative viability: 0.914
[10]; first compound 0.2 µM
  relative viability: 0.863
[10]; first compound 0.6325 µM
  relative viability: 1.2
[10]; first compound 2 µM
  relative viability: 1.07
[11]; first compound 0.02 µM
  relative viability: 0.707
[11]; first compound 0.2 µM
  relative viability: 0.655
[11]; first compound 0.6325 µM
  relative viability: 0.502
[11]; first compound 2 µM
  relative viability: 0.467
[12]; first compound 0.02 µM
  relative viability: 0.765
[12]; first compound 0.2 µM
  relative viability: 0.735
[12]; first compound 0.6325 µM
  relative viability: 0.744
[12]; first compound 2 µM
  relative viability: 0.677
[13]; first compound 0.02 µM
  relative viability: 0.696
[13]; first compound 0.2 µM
  relative viability: 0.221
[13]; first compound 0.6325 µM
  relative viability: 0.7
[13]; first compound 2 µM
  relative viability: 0.505
[14]; first compound 0.02 µM
  relative viability: 0.43
[14]; first compound 0.6325 µM
  relative viability: 0.324
[14]; first compound 2 µM
  relative viability: 0.274
[15]; first compound 0.02 µM
  relative viability: 0.8
[15]; first compound 0.2 µM
  relative viability: 0.672
[15]; first compound 0.6325 µM
  relative viability: 0.662
[15]; first compound 2 µM
  relative viability: 0.589
[16]; first compound 0.02 µM
  relative viability: 0.609
[16]; first compound 0.2 µM
  relative viability: 0.393
[16]; first compound 0.6325 µM
  relative viability: 0.953
[16]; first compound 2 µM
  relative viability: 0.742
[17]; first compound 0.02 µM
  relative viability: 0.957
[17]; first compound 0.2 µM
  relative viability: 0.357
[17]; first compound 0.6325 µM
  relative viability: 0.968
[17]; first compound 2 µM
  relative viability: 0.718
[18]; first compound 0.02 µM
  relative viability: 0.304
[18]; first compound 0.2 µM
  relative viability: 0.27
[18]; first compound 0.6325 µM
  relative viability: 0.348
[18]; first compound 2 µM
  relative viability: 0.278
[19]; first compound 0.02 µM
  relative viability: 0.611
[19]; first compound 0.2 µM
  relative viability: 0.396
[19]; first compound 0.6325 µM
  relative viability: 0.524
[19]; first compound 2 µM
  relative viability: 0.254
[20]; first compound 0.02 µM
  relative viability: 0.303
[20]; first compound 0.6325 µM
  relative viability: 0.312
[20]; first compound 2 µM
  relative viability: 0.253
[21]; first compound 0.02 µM
  relative viability: 0.426
[21]; first compound 0.6325 µM
  relative viability: 0.379
[21]; first compound 2 µM
  relative viability: 0.317
[22]; first compound 0.02 µM
  relative viability: 0.618
[22]; first compound 0.2 µM
  relative viability: 0.613
[22]; first compound 0.6325 µM
  relative viability: 0.583
[22]; first compound 2 µM
  relative viability: 0.485
[23]; first compound 0.02 µM
  relative viability: 0.721
[23]; first compound 0.2 µM
  relative viability: 0.429
[23]; first compound 0.6325 µM
  relative viability: 0.623
[23]; first compound 2 µM
  relative viability: 0.403
